Test results: patent US9957278B2, “Furopyridine compounds for the treatment of hepatitis C” (BRISTOL-MYERS SQUIBB COMPANY, priority 2014, dated 2018)
Read-outs that look alike come from different tables or passages of the source.

Key:
[1] = test system: genotype 1b (Con-1) HCV replicon; test: HCV Replicon Luciferase Assay (genotype 1b); type: cell-based; conditions: Hepatitis C virus, 72 h, genotype 1b replicon in Huh-7 cells, Renilla luciferase, 3 days incubation
Protocol: The cell lines used to evaluate compounds consist of a human hepatocyte derived cell line (Huh-7) that constitutively expresses a genotype 1b (Con-1) HCV replicon or a genotype 1b (Con-1) HCV replicon with an asparagine replacing the cysteine at amino acid 316, or a genotype 2a (JFH-1) replicon, containing a Renilla luciferase reporter gene. These cells were maintained in Dulbecco's modified Eagle medium (DMEM) containing 10% FBS, 100 U/mL penicillin/streptomycin and 1.0 mg/mL G418.
To evaluate compound efficacy, titrated compounds were transferred to sterile 384-well tissue culture treated plates, and the plates were seeded with HCV replicon cells (50 μL at a density of 2.4×10^3 cells/well) in DMEM containing 4% FBS (final DMSO concentration at 0.5%). After 3 days incubation at 37° C., cells were analyzed for Renilla Luciferase activity using the EnduRen substrate (Promega cat #E6485) according to the manufacturer's directions. Briefly, the EnduRen substrate was diluted in DMEM and then added to the plates to a final concentration of 7.5 μM. The plates were incubated for at least 1 h at 37° C. then read on a Viewlux Imager (PerkinElmer) using a luminescence program. The 50% effective concentration (EC50) was calculated using the four-parameter logistic formula noted above.
Compound EC50 data is expressed as A: <100 nM; B=100-1000 nM; C>1000 nM).

HCV = conditions: cited from earlier work

CNC(=O)c1c(-c2ccc(F)cc2)oc2nc(CCC(F)(F)F)c(-c3ccc(F)c(C(=O)NC(C)C(F)(F)F)c3)cc12 (stereo not drawn) [Compound 22001]
EC50 ([1]; read-out: EC50 1b (class)): < 0.1 µM
EC50 ([1]; read-out: EC50 (uM) 1b): 0.0108 µM

CCC(NC(=O)c1cc(-c2cc3c(C(=O)NC)c(-c4ccc(F)cc4)oc3nc2CCC(F)(F)F)ccc1F)C(F)(F)F (stereo not drawn) [Compound 22002]
EC50 ([1]; read-out: EC50 1b (class)): < 0.1 µM

CNC(=O)c1c(-c2ccc(F)cc2)oc2nc(CCC(F)(F)F)c(-c3ccc(F)c(C(=O)NC(C)(C)C(F)(F)F)c3)cc12 [Compound 22003]
EC50 ([1]; read-out: EC50 1b (class)): < 0.1 µM

CNC(=O)c1c(-c2ccc(F)cc2)oc2nc(NCC(F)(F)F)c(-c3cccc(C(=O)NC(CF)(CF)CF)c3)cc12 [Compound 30001]
EC50 ([1]; read-out: EC50 1b (class)): < 0.1 µM

C#CC(C)(C)NC(=O)c1cccc(-c2cc3c(C(=O)NC)c(-c4ccc(F)cc4)oc3nc2NCC(F)(F)F)c1 [Compound 30002]
EC50 ([1]; read-out: EC50 1b (class)): < 0.1 µM
EC50 ([1]; read-out: EC50 (uM) 1b): 0.0037 µM

CNC(=O)c1c(-c2ccc(F)cc2)oc2nc(NCC(F)(F)F)c(-c3cccc(C(=O)NC(C)C(F)(F)F)c3)cc12 (stereo not drawn) [Compound 30004]
EC50 ([1]; read-out: EC50 1b (class)): < 0.1 µM

CCC(NC(=O)c1cccc(-c2cc3c(C(=O)NC)c(-c4ccc(F)cc4)oc3nc2NCC(F)(F)F)c1)C(F)(F)F (stereo not drawn) [Compound 30005]
EC50 ([1]; read-out: EC50 1b (class)): < 0.1 µM

CNC(=O)c1c(-c2ccc(F)cc2)oc2nc(NCC(F)(F)F)c(-c3cccc(C(=O)NC(C)(C)C(F)(F)F)c3)cc12 [Compound 30006]
EC50 ([1]; read-out: EC50 1b (class)): < 0.1 µM
EC50 ([1]; read-out: EC50 (uM) 1b): 0.0053 µM

CNC(=O)c1c(-c2ccc(F)cc2)oc2nc(NCC(F)(F)F)c(-c3cccc(C(=O)NC(C4CC4)C(F)(F)F)c3)cc12 (stereo not drawn) [Compound 30007]
EC50 ([1]; read-out: EC50 1b (class)): < 0.1 µM

CNC(=O)c1c(-c2ccc(F)cc2)oc2nc(NCC(F)(F)F)c(-c3cccc(C(=O)NC4(C(=O)OC)CC4)c3)cc12 [Compound 30008]
EC50 ([1]; read-out: EC50 1b (class)): < 0.1 µM

CNC(=O)c1c(-c2ccc(F)cc2)oc2nc(NCC(F)(F)F)c(-c3cccc(C(=O)NC(C)(C)C(=O)OC)c3)cc12 [Compound 30009]
EC50 ([1]; read-out: EC50 1b (class)): < 0.1 µM

CNC(=O)c1c(-c2ccc(F)cc2)oc2nc(NCC(F)(F)F)c(-c3cccc(C(=O)NC(C)(C)CO)c3)cc12 [Compound 30010]
EC50 ([1]; read-out: EC50 1b (class)): < 0.1 µM

CNC(=O)c1c(-c2ccc(F)cc2)oc2nc(NCC(F)(F)F)c(-c3cccc(C(=O)NCC(C)(C)C)c3)cc12 [Compound 30011]
EC50 ([1]; read-out: EC50 1b (class)): < 0.1 µM

CNC(=O)c1c(-c2ccc(F)cc2)oc2nc(NCC(F)(F)F)c(-c3cccc(C(=O)N[C@@H](CO)c4ccccc4)c3)cc12 [Compound 30012]
EC50 ([1]; read-out: EC50 1b (class)): < 0.1 µM
EC50 ([1]; read-out: EC50 (uM) 1b): 0.0239 µM

CNC(=O)c1c(-c2ccc(F)cc2)oc2nc(NCC(F)(F)F)c(-c3cccc(C(=O)NC(C)(C)C(=O)NC)c3)cc12 [Compound 30013]
EC50 ([1]; read-out: EC50 1b (class)): < 0.1 µM

CNC(=O)c1c(-c2ccc(F)cc2)oc2nc(NCC(F)(F)F)c(-c3cccc(C(=O)NCC(C)(C)CO)c3)cc12 [Compound 30014]
EC50 ([1]; read-out: EC50 1b (class)): < 0.1 µM

CNC(=O)c1c(-c2ccc(F)cc2)oc2nc(NCC(F)(F)F)c(-c3cccc(C(=O)NC(C)(C)c4ccccc4)c3)cc12 [Compound 30015]
EC50 ([1]; read-out: EC50 1b (class)): < 0.1 µM
EC50 ([1]; read-out: EC50 (uM) 1b): 0.0067 µM

CNC(=O)c1c(-c2ccc(F)cc2)oc2nc(NCC(F)(F)F)c(-c3cccc(C(=O)N[C@H](CO)c4ccccc4)c3)cc12 [Compound 30016]
EC50 ([1]; read-out: EC50 1b (class)): < 0.1 µM

CNC(=O)c1c(-c2ccc(F)cc2)oc2nc(NCC(F)(F)F)c(-c3ccc(OC)c(C(=O)NCC(F)(F)C(F)(F)C(F)(F)F)c3)cc12 [Compound 31001]
EC50 ([1]; read-out: EC50 1b (class)): < 0.1 µM
EC50 ([1]; read-out: EC50 (uM) 1b): 0.014 µM

CNC(=O)c1c(-c2ccc(F)cc2)oc2nc(NCC(F)(F)F)c(-c3ccc(OC)c(C(=O)NC(CF)(CF)CF)c3)cc12 [Compound 31002]
EC50 ([1]; read-out: EC50 1b (class)): < 0.1 µM

CNC(=O)c1c(-c2ccc(F)cc2)oc2nc(NCC(F)(F)C(F)(F)F)c(-c3cccc(C(=O)NCC(C)(C)C)c3)cc12 [Compound 40001]
EC50 ([1]; read-out: EC50 1b (class)): < 0.1 µM
EC50 ([1]; read-out: EC50 (uM) 1b): 0.0982 µM

CNC(=O)c1c(-c2ccc(F)cc2)oc2nc(NCC(F)(F)C(F)(F)F)c(-c3cccc(C(=O)NC(C)(C)C)c3)cc12 [Compound 40002]
EC50 ([1]; read-out: EC50 1b (class)): < 0.1 µM

[2H]C([2H])([2H])C(NC(=O)c1cccc(-c2cc3c(C(=O)NC)c(-c4ccc(F)cc4)oc3nc2NCC(F)(F)C(F)(F)F)c1)(C([2H])([2H])[2H])C([2H])([2H])[2H] [Compound 40003]
EC50 ([1]; read-out: EC50 1b (class)): 0.1 to 1 µM

CNC(=O)c1c(-c2ccc(F)cc2)oc2nc(NCC(F)(F)C(F)(F)F)c(-c3cccc(C(=O)NC(CF)(CF)CF)c3)cc12 [Compound 40004]
EC50 ([1]; read-out: EC50 1b (class)): < 0.1 µM

C#CC(C)(C)NC(=O)c1cccc(-c2cc3c(C(=O)NC)c(-c4ccc(F)cc4)oc3nc2NCC(F)(F)C(F)(F)F)c1 [Compound 40005]
EC50 ([1]; read-out: EC50 1b (class)): 0.1 to 1 µM

CNC(=O)c1c(-c2ccc(F)cc2)oc2nc(NCC(F)(F)C(F)(F)F)c(-c3ccc(OC)c(C(=O)NC(C)(C)C)c3)cc12 [Compound 41001]
EC50 ([1]; read-out: EC50 1b (class)): < 0.1 µM

CNC(=O)c1c(-c2ccc(F)cc2)oc2nc(NCC(F)(F)C(F)(F)F)c(-c3ccc(OC)c(C(=O)NCC(C)(C)C)c3)cc12 [Compound 41002]
EC50 ([1]; read-out: EC50 1b (class)): < 0.1 µM

CNC(=O)c1c(-c2ccc(F)cc2)oc2nc(NCC(F)(F)C(F)(F)F)c(-c3ccc(OC)c(C(=O)NC(CF)(CF)CF)c3)cc12 [Compound 41003]
EC50 ([1]; read-out: EC50 1b (class)): < 0.1 µM
EC50 ([1]; read-out: EC50 (uM) 1b): 0.0519 µM

C#CC(C)(C)NC(=O)c1cc(-c2cc3c(C(=O)NC)c(-c4ccc(F)cc4)oc3nc2NCC(F)(F)C(F)(F)F)ccc1OC [Compound 41004]
EC50 ([1]; read-out: EC50 1b (class)): < 0.1 µM
EC50 ([1]; read-out: EC50 (uM) 1b): 0.0173 µM

[2H]C([2H])([2H])C(NC(=O)c1cc(-c2cc3c(C(=O)NC)c(-c4ccc(F)cc4)oc3nc2NCC(F)(F)C(F)(F)F)ccc1OC)(C([2H])([2H])[2H])C([2H])([2H])[2H] [Compound 41005]
EC50 ([1]; read-out: EC50 1b (class)): < 0.1 µM

CNC(=O)c1c(-c2ccc(F)cc2)oc2nc(NCCO)c(-c3cccc(C(=O)NC(C)(C)C(F)(F)F)c3)cc12 [Compound 42001]
EC50 ([1]; read-out: EC50 1b (class)): < 0.1 µM

CNC(=O)c1c(-c2ccc(F)cc2)oc2nc(NCCO)c(-c3cccc(C(=O)NC(CF)(CF)CF)c3)cc12 [Compound 42002]
EC50 ([1]; read-out: EC50 1b (class)): < 0.1 µM

[2H]C([2H])([2H])C(NC(=O)c1cccc(-c2cc3c(C(=O)NC)c(-c4ccc(F)cc4)oc3nc2NCCO)c1)(C([2H])([2H])[2H])C([2H])([2H])[2H] [Compound 42003]
EC50 ([1]; read-out: EC50 1b (class)): < 0.1 µM
EC50 ([1]; read-out: EC50 (uM) 1b): 0.0144 µM

CNC(=O)c1c(-c2ccc(F)cc2)oc2cc(N(CCO)S(C)(=O)=O)c(C3CC3)cc12 [HCV-796]
hepatic toxicity (HCV; extended dosing of the combination regimens): hepatic toxicity observed
HCV RNA levels in patients (HCV; patients, single agent transient, more robust with interferon and ribavirin): reduce HCV RNA levels
